The assay addresses T1, receptor BlaR-CTD (Bacillus licheniformis, UniProt P12287).
T1 construct: the receptor BlaR-CTD is the carboxy-terminal region of BlaR
In words: Five minutes test: strip test for β-lactam antibiotics in milk using BlaR-CTD. Format: binding. As to conditions: in 5 minutes; positive when first band is less intense than second band. An excerpt: According to a preferred embodiment of the invention an identifier is used which comprises a receptor sensitive to antibiotics having a β-lactam ring, which receptor is obtained from Bacillus licheniformis, such as the receptor BlaR or the receptor BlaR-CTD. The isolation and the peptide sequence of the protein BlaR are described in Y. Zhu et al., J. Bacteriol., 1137-1141 (1990); the receptor BlaR-CTD is the carboxy-terminal region of BlaR, whose isolation and peptide sequence are described in B. Joris et al., FEMS Microbiology Letters, 107-114 (1990).
This example illustrates the detection in milk of antibiotics having a β-lactam ring which are monitored by the health authorities. The test described in this example uses the receptor BlaR-CTD coupled with gold beads, which serve as labelling agents, and uses a support which is in the form of an assay device comprising a solid support on which membranes are fixed.
3.79 ml of a solution of recognition agent BlaR-CTD having a concentration of 6.6 mg/ml are taken up in a sodium phosphate buffer, 20 mM pH 7. To this solution of BlaR-CTD are then added 41.71 ml of bicarbonate buffer (0.1 M sodium bicarbonate, pH 9) and 2 ml of a solution of N-hydroxysuccinimide 6-(biotinamido)caproic ester containing 2.23 mg/ml likewise of bicarbonate buffer. This solution is stirred gently on a LABINCO stirrer for tubes on a rotary axis (available from VEL, Belgium) at a rate of 2 revolutions/minute for 2 hours at ambient temperature and away from light. 2.5 ml of a solution of Tris buffer, 1 M pH 8 are incubated with the reaction mixture under the same conditions for 30 minutes. The solution thus obtained is dialysed against HNM buffer (Hepes 100 mM, pH 8, NaCl 100 mM, MgCl2 50 mM) for 24 hours. In this way a biotinylated BlaR-CTD solution is obtained which is diluted in HNM-BSA buffer (Hepes 500 mM, pH 8, NaCl 500 mM, MgCl2 250 mM, BSA 10 mg/ml) to a concentration of 250 μg of biotinylated BlaR-CTD per ml of buffer. This solution is stored at −20° C.
The biotinylated BlaR-CTD solution prepared in Example 3.1.1 is diluted 114.7 times with the HNM-BSA buffer (Hepes 500 mM, pH 8, NaCl 500 mM, MgCl2 250 mM, BSA 10 mg/ml). At room temperature, 22.5 parts by volume of this dilute biotinylated BlaR-CTD solution, 7.5 parts by volume of HNM-BSA buffer, 9.27 parts by volume of the gold particle suspension used to label the biotinylated BlaR-CTD and 6 parts by volume of reference gold particle suspension are mixed (see Example 3.1.4 below).
The first capture substance makes it possible to fix the BlaR-CTD coupled with the gold beads present in excess relative to the quantity of antibiotic present in the sample.
Assay devices containing membranes (2), (3) and (4) are used, assembled in accordance with the procedure described in Example 1.1. The membrane (3) of these devices carries on the proximal side the capture substance described in Example 32.1. and on the distal side the capture substance described in Example 3.2.2. The capture substances were deposited in accordance with the procedure described in Example 1.2.
Six samples of fresh milk are prepared, containing 0; 2; 4; 6; 8 and 10 ppb, repsectively, of cloxacillin. Each of these solutions is then analysed as follows.
An aliquot is taken of 200 μl of milk sample and 45.27 μl of solution prepared in Example 3.1.3, and is placed in a glass flask. This mixture is incubated at 47° C. for 3 minutes. An assay device is taken and is placed vertically in the glass flask such that the first end of the assay device is in contact with the mixture in such a way that the second end rests on the wall of the glass flask. The mixture is allowed to migrate over the assay device while the assembly is incubated at 47° C. for 2 minutes.
An intensity value ranging from 0 to 10 is awarded to the bands detected, the value 10 being given to the most intense band and the value 0 being given to the least intense band. On this scale, a value of 6 is awarded to the reference band. […]

T1 sequence (P12287 340-601): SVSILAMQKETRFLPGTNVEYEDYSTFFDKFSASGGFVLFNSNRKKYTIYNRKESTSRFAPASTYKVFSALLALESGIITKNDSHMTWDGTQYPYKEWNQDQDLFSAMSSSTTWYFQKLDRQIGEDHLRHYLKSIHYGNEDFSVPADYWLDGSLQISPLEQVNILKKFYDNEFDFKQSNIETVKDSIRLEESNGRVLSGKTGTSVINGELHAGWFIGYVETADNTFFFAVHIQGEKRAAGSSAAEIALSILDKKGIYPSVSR

Take `CC1(C)S[C@@H]2[C@H](NC(=O)Cc3ccccc3)C(=O)N2[C@H]1C(=O)O` [Penicillin G, penicillin G]: the “lowest concentration detected in a milk sample” value was 3 ppb.

The values are drawn from US20040096356A1, “Assay device for determining analytes in a liquid dairy product” (priority 1997, published 2004).
